According to patent publication US9801380B2, “Low VOC gibberellin formulations” (Valent BioSciences Corporation, priority 2013, dated 2017):

Assay: Stability tests: observation for solubility after mixing
Conditions: 5.95% GA3 TGAI
Procedure: The stability tests were performed as follows. The solvent was charged in a 150 mL glass beaker containing a magnetic stir bar. The solvent was warmed on a hot plate while stirring. The polysorbate surfactant was charged when the solvent temperature reached 30 to 38 degrees Celsius. The formulations were mixed until they were solubilized (1 to 4 minutes). Then the GA3 TGAI was added under stirring and the temperature was raised to 38 to 41 degrees Celsius. The heat was discontinued and the formulations were mixed for 30 to 50 minutes. The formulations were then observed for solubility.

C=C1C[C@]23C[C@@]1(O)CC[C@H]2[C@@]12C=C[C@H](O)[C@@](C)(C(=O)O1)[C@H]2[C@@H]3C(=O)O [GA3, gibberellic acid]
Solubility of GA3 in the formulation (Formulation B (triethyl citrate)): not soluble | Solubility of GA3 in the formulation (Formulations A and D (PEG 300, PEG 400)): soluble
